The values that follow come from US12441726B2, “Compounds and uses thereof” (Foghorn Therapeutics Inc., priority 2020, dated 2025).

pIC50: −log10 of the molar value. Some results are limits rather than exact numbers.

Sequence of BRM (P51531 whole entry): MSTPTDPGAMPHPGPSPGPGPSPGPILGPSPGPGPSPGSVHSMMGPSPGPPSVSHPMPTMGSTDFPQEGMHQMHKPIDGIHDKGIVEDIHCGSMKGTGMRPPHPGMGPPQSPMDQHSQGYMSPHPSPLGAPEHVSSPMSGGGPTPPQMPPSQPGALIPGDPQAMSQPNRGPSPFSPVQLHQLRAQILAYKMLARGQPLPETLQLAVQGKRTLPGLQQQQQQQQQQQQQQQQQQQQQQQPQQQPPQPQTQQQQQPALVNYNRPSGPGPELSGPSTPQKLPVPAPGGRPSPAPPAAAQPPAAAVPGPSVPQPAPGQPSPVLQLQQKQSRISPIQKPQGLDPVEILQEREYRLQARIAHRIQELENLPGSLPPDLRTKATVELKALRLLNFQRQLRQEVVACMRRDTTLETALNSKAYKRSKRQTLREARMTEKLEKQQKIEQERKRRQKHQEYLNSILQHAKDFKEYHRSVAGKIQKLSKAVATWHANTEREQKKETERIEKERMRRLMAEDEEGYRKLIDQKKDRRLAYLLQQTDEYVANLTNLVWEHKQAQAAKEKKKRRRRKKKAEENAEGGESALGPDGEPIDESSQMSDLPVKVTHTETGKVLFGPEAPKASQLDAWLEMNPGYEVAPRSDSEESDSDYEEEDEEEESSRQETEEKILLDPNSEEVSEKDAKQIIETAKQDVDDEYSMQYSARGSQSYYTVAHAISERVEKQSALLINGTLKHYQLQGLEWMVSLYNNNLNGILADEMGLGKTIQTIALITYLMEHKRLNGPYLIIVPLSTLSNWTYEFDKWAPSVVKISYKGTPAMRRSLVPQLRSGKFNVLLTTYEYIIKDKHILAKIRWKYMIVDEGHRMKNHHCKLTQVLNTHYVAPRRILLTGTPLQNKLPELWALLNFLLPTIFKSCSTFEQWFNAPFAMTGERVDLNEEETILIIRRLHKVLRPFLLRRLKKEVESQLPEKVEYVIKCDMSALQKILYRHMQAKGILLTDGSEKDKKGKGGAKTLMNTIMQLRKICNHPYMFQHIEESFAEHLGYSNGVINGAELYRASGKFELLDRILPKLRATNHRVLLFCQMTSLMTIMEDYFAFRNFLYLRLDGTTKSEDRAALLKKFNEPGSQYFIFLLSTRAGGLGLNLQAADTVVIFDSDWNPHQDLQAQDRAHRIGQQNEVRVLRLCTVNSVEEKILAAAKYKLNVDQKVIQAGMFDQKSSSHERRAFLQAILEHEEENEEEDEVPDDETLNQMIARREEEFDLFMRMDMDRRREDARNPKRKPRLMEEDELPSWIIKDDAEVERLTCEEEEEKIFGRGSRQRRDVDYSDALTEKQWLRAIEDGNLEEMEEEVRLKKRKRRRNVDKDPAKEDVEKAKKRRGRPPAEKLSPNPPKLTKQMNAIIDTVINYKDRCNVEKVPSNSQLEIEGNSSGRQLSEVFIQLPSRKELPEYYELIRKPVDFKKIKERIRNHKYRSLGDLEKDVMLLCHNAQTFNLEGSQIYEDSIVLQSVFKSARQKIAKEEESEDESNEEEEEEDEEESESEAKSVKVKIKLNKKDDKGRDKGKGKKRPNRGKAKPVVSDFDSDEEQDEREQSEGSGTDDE

The first experiment concerns the target BRM (Homo sapiens, UniProt P51531). The experiment is described as follows: ATPase catalytic activity assay (ADP-Glo), BRM. As to conditions: 30 nM BRM, 400 μM ATP. On the technique in general: ADP-Glo turns the ADP formed in a reaction into a luminescent signal.
In the case of `COc1cccc(-c2ccc3cnc(CNC(=O)c4ccc5c(c4)[C@](C)(C#N)COC5)cc3n2)c1` [Compound 91], the “BRM Max % Inhibition” value was determined as 97%.

On to `C[C@@]1(C#N)COCc2ccc(C(=O)NCc3cc4nc(-n5cccc(N6CCC6)c5=O)ccc4cn3)cc21` [Compound 283], for which the “BRM Max % Inhibition” value is 96%.

As to `CNC(=O)c1cc(-c2ccc3cnc(CNC(=O)c4ccc5c(c4)[C@](C)(C#N)COC5)cc3n2)ccc1F` [Compound 467], the “BRM Max % Inhibition” value was found to be 99%.

`COc1nn([C@H]2C[C@H](F)C2)cc1-c1ccc2cnc(CNC(=O)c3ccc4c(c3)[C@](C)(C#N)COC4)cc2n1` [Compound 185]: the “BRM Max % Inhibition” value is recorded as 99%.

As for `COc1cc(C2CCC2)ccc1-c1ccc2cnc(CNC(=O)c3ccc4c(c3)[C@](C)(C#N)COC4)cc2n1` [Compound 127], the “BRM Max % Inhibition” value is 96%.

On to `COCCN1CCC(c2cccc(-c3ccc4cnc(CNC(=O)c5ccc6c(c5)[C@](C)(C#N)COC6)cc4n3)n2)CC1` [Compound 128], for which the “BRM Max % Inhibition” value was 82%.

Take `C[C@@]1(C#N)COCc2ncc(C(=O)NCc3cc4nc(-c5cccc(C6CC6)c5)ccc4nn3)cc21` [Compound 198]: the “BRM Max % Inhibition” value came out at 94%.

For the compound `CN1CCN(c2cccc(-c3ccc4cnc(CNC(=O)c5ccc6c(c5)[C@](C)(C#N)COC6)cc4n3)n2)CC1` [Compound 465], the “BRM Max % Inhibition” value stood at 99%.

`COc1cc(C(C)(C)C)ccc1-c1ccc2cnc(CNC(=O)c3ccc4c(c3)[C@](C)(C#N)COC4)cc2n1` [Compound 148]: the “BRM Max % Inhibition” value is listed as 90%.

As to `C[C@@]1(F)COCc2ncc(C(=O)NCc3cc4nc(-c5cncc(C6CC6)n5)ccc4cn3)cc21` [Compound 301], the “BRM Max % Inhibition” value turned out to be 96%.

In the case of `C[C@@]1(C#N)COCc2ccc(C(=O)NCc3cc4nc(-c5cc6ccccn6n5)ccc4cn3)cc21` [Compound 164], the “BRM Max % Inhibition” value is reported as 92%.

Take `COC[C@H](NC(=O)c1ccc2c(c1)[C@](C)(C#N)COC2)c1cc(/C=C/c2ccccc2)ccn1` [Compound 41]: the “BRM Max % Inhibition” value is 85%.

`COCCOCCC(=O)N1CCN(c2cccc(-c3ccc4cnc(CNC(=O)c5ccc6c(c5)[C@](C)(C#N)COC6)cc4n3)n2)CC1` [Compound 278]: the “BRM Max % Inhibition” value is 101%.

For the compound `C[C@@H](O)c1cccc(-c2ccc3cnc(CNC(=O)c4cnc5c(c4)[C@](C)(F)COC5)cc3n2)n1` [Compound 212], the “BRM Max % Inhibition” value was 89%.

As for `C[C@@]1(C#N)COCc2ccc(C(=O)NCc3cc4c(cn3)CCN(c3ccccc3)C4)cc21` [Compound 92], the “BRM Max % Inhibition” value is recorded as 95%.

Consider `C[C@@]1(C#N)COCc2ccc(C(=O)NCc3cc([C@@H]4C[C@H]4c4ccccc4)ccn3)cc21` [Compound 8], for which the “BRM Max % Inhibition” value is reported as 73%.

In the case of `O=C(NCc1cc(C#Cc2ccccc2)ccn1)c1ccc2c(c1)[C@@](F)(C(F)F)COC2` [Compound 47], the “BRM Max % Inhibition” value stood at 90%.

The same experiment, now with this note: BRM ATPase: IC50 (uM), 30 nM BRM, 400 μM ATP.
For orientation: IC50 means the concentration at which inhibition is half-maximal. A higher IC50 goes with weaker potency. With `COc1cccc(-c2ccc3cnc(CNC(=O)c4ccc5c(c4)[C@](C)(C#N)COC5)cc3n2)c1` [Compound 91], the IC50 was < 0.1 µM.

As to `C[C@@]1(C#N)COCc2ccc(C(=O)NCc3cc4nc(-n5cccc(N6CCC6)c5=O)ccc4cn3)cc21` [Compound 283], the IC50 was 0.1 to 0.5 µM.

Regarding `CNC(=O)c1cc(-c2ccc3cnc(CNC(=O)c4ccc5c(c4)[C@](C)(C#N)COC5)cc3n2)ccc1F` [Compound 467], the IC50 was < 0.1 µM.

As for `COc1nn([C@H]2C[C@H](F)C2)cc1-c1ccc2cnc(CNC(=O)c3ccc4c(c3)[C@](C)(C#N)COC4)cc2n1` [Compound 185], the IC50 was < 0.1 µM.

On to `COc1cc(C2CCC2)ccc1-c1ccc2cnc(CNC(=O)c3ccc4c(c3)[C@](C)(C#N)COC4)cc2n1` [Compound 127], for which the IC50 is < 0.1 µM.

`COCCN1CCC(c2cccc(-c3ccc4cnc(CNC(=O)c5ccc6c(c5)[C@](C)(C#N)COC6)cc4n3)n2)CC1` [Compound 128] came in with an IC50 of 0.1 to 0.5 µM.

`C[C@@]1(C#N)COCc2ncc(C(=O)NCc3cc4nc(-c5cccc(C6CC6)c5)ccc4nn3)cc21` [Compound 198] yielded an IC50 of 0.1 to 0.5 µM.

Take `CN1CCN(c2cccc(-c3ccc4cnc(CNC(=O)c5ccc6c(c5)[C@](C)(C#N)COC6)cc4n3)n2)CC1` [Compound 465]: the concentration for half-maximal inhibition (IC50) was < 0.1 µM.

Regarding `COc1cc(C(C)(C)C)ccc1-c1ccc2cnc(CNC(=O)c3ccc4c(c3)[C@](C)(C#N)COC4)cc2n1` [Compound 148], the IC50 fell in the range of 0.1 to 0.5 µM.

Take `C[C@@]1(F)COCc2ncc(C(=O)NCc3cc4nc(-c5cncc(C6CC6)n5)ccc4cn3)cc21` [Compound 301]: the IC50 is < 0.1 µM.

With `C[C@@]1(C#N)COCc2ccc(C(=O)NCc3cc4nc(-c5cc6ccccn6n5)ccc4cn3)cc21` [Compound 164], the IC50 was 0.1 to 0.5 µM.

The compound `COC[C@H](NC(=O)c1ccc2c(c1)[C@](C)(C#N)COC2)c1cc(/C=C/c2ccccc2)ccn1` [Compound 41] gave an IC50 of 0.5 to 1 µM.

For `COCCOCCC(=O)N1CCN(c2cccc(-c3ccc4cnc(CNC(=O)c5ccc6c(c5)[C@](C)(C#N)COC6)cc4n3)n2)CC1` [Compound 278], the IC50 is < 0.1 µM.

Compound `C[C@@H](O)c1cccc(-c2ccc3cnc(CNC(=O)c4cnc5c(c4)[C@](C)(F)COC5)cc3n2)n1` [Compound 212] had an IC50 of 0.1 to 0.5 µM.

Compound `C[C@@]1(C#N)COCc2ccc(C(=O)NCc3cc4c(cn3)CCN(c3ccccc3)C4)cc21` [Compound 92] had an IC50 of 0.1 to 0.5 µM.

Take `C[C@@]1(C#N)COCc2ccc(C(=O)NCc3cc([C@@H]4C[C@H]4c4ccccc4)ccn3)cc21` [Compound 8]: the IC50 is > 1 µM.

`O=C(NCc1cc(C#Cc2ccccc2)ccn1)c1ccc2c(c1)[C@@](F)(C(F)F)COC2` [Compound 47] had an IC50 of 0.1 to 0.5 µM.

In another experiment the target is BRG-1 (Homo sapiens, UniProt P51532). The experiment in a line: ATPase catalytic activity assay (ADP-Glo), BRG-1.
Sequence of BRG-1 (P51532 whole entry): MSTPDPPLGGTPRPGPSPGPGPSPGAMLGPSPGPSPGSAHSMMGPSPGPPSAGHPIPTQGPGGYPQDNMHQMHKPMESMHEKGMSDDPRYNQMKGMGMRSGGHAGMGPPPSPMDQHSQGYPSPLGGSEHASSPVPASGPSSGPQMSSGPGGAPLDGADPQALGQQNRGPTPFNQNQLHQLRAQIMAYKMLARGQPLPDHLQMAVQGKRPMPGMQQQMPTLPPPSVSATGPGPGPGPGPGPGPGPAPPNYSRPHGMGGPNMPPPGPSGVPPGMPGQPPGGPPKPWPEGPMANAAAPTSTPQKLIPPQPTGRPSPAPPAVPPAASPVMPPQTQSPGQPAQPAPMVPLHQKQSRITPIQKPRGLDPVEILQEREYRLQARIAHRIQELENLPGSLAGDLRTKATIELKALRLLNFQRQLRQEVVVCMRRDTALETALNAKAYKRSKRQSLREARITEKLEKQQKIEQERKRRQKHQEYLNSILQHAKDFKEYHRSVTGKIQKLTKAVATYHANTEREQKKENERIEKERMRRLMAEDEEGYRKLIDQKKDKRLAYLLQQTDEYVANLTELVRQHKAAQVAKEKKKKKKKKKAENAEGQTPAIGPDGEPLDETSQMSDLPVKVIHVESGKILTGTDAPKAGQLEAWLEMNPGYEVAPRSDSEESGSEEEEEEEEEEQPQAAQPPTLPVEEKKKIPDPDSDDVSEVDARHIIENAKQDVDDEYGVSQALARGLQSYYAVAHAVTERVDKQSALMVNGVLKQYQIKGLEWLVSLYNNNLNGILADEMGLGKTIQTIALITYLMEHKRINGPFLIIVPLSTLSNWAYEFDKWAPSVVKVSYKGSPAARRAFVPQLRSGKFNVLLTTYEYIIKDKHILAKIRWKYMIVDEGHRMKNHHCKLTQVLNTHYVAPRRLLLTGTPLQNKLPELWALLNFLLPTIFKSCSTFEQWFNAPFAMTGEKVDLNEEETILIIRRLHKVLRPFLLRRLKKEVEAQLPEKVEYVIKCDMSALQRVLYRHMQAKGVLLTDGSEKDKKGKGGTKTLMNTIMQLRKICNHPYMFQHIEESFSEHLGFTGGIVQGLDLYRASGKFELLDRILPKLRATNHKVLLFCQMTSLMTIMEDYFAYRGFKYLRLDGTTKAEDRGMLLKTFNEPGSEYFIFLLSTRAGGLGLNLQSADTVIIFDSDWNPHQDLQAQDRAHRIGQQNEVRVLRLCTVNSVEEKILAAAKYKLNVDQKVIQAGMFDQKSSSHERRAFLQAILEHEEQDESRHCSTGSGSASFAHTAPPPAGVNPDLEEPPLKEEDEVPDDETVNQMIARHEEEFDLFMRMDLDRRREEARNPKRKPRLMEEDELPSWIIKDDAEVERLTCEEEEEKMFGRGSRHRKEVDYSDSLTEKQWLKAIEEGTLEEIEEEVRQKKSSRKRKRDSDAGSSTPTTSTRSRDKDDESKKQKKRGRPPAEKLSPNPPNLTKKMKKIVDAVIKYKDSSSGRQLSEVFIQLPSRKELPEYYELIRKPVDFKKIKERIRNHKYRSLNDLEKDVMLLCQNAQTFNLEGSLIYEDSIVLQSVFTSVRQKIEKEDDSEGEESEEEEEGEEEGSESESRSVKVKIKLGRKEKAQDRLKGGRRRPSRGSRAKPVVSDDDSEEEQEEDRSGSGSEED
Conditions: not given
In general, pIC50 refers to the negative decadic logarithm of the IC50, by convention in mol/L. In turn, `COc1cccc(-c2ccc3cnc(CNC(=O)c4ccc5c(c4)[C@](C)(C#N)COC5)cc3n2)c1` [Compound 91] gave a negative logarithm of the IC50 (pIC50) of 6.00 to 6.30.

In turn, `C[C@@]1(C#N)COCc2ccc(C(=O)NCc3cc4nc(-n5cccc(N6CCC6)c5=O)ccc4cn3)cc21` [Compound 283] had a negative logarithm of the IC50 (pIC50) of 6.00 to 6.30.

`CNC(=O)c1cc(-c2ccc3cnc(CNC(=O)c4ccc5c(c4)[C@](C)(C#N)COC5)cc3n2)ccc1F` [Compound 467] showed a pIC50 of 6.30 to 7.00.

On to `COc1nn([C@H]2C[C@H](F)C2)cc1-c1ccc2cnc(CNC(=O)c3ccc4c(c3)[C@](C)(C#N)COC4)cc2n1` [Compound 185], for which the pIC50 is 6.30 to 7.00.

Regarding `COc1cc(C2CCC2)ccc1-c1ccc2cnc(CNC(=O)c3ccc4c(c3)[C@](C)(C#N)COC4)cc2n1` [Compound 127], the pIC50 was 6.00 to 6.30.

`COCCN1CCC(c2cccc(-c3ccc4cnc(CNC(=O)c5ccc6c(c5)[C@](C)(C#N)COC6)cc4n3)n2)CC1` [Compound 128]: the pIC50 was < 6.00.

In the case of `C[C@@]1(C#N)COCc2ncc(C(=O)NCc3cc4nc(-c5cccc(C6CC6)c5)ccc4nn3)cc21` [Compound 198], the pIC50 is 6.00 to 6.30.

Compound `CN1CCN(c2cccc(-c3ccc4cnc(CNC(=O)c5ccc6c(c5)[C@](C)(C#N)COC6)cc4n3)n2)CC1` [Compound 465] had a pIC50 of 6.30 to 7.00.

Consider `COc1cc(C(C)(C)C)ccc1-c1ccc2cnc(CNC(=O)c3ccc4c(c3)[C@](C)(C#N)COC4)cc2n1` [Compound 148], for which the pIC50 was < 6.00.

`C[C@@]1(F)COCc2ncc(C(=O)NCc3cc4nc(-c5cncc(C6CC6)n5)ccc4cn3)cc21` [Compound 301] gave a pIC50 of 6.30 to 7.00.

As for `C[C@@]1(C#N)COCc2ccc(C(=O)NCc3cc4nc(-c5cc6ccccn6n5)ccc4cn3)cc21` [Compound 164], the pIC50 is 6.00 to 6.30.

For the compound `COC[C@H](NC(=O)c1ccc2c(c1)[C@](C)(C#N)COC2)c1cc(/C=C/c2ccccc2)ccn1` [Compound 41], the pIC50 was < 6.00.

`COCCOCCC(=O)N1CCN(c2cccc(-c3ccc4cnc(CNC(=O)c5ccc6c(c5)[C@](C)(C#N)COC6)cc4n3)n2)CC1` [Compound 278]: the pIC50 is 6.30 to 7.00.

With `C[C@@H](O)c1cccc(-c2ccc3cnc(CNC(=O)c4cnc5c(c4)[C@](C)(F)COC5)cc3n2)n1` [Compound 212], the pIC50 is < 6.00.

As for `C[C@@]1(C#N)COCc2ccc(C(=O)NCc3cc4c(cn3)CCN(c3ccccc3)C4)cc21` [Compound 92], the pIC50 is < 6.00.

For the compound `C[C@@]1(C#N)COCc2ccc(C(=O)NCc3cc([C@@H]4C[C@H]4c4ccccc4)ccn3)cc21` [Compound 8], the pIC50 was < 6.00.

As for `O=C(NCc1cc(C#Cc2ccccc2)ccn1)c1ccc2c(c1)[C@@](F)(C(F)F)COC2` [Compound 47], the pIC50 is < 6.00.

The same experiment, now with this note: 1 h, read-out: BRG1 Max % Inhibition, ADP-Glo, 30 nM BRG-1, 400 μM ATP.
`COc1cccc(-c2ccc3cnc(CNC(=O)c4ccc5c(c4)[C@](C)(C#N)COC5)cc3n2)c1` [Compound 91]: the Emax stood at 85%.

Consider `C[C@@]1(C#N)COCc2ccc(C(=O)NCc3cc4nc(-n5cccc(N6CCC6)c5=O)ccc4cn3)cc21` [Compound 283], for which the Emax amounted to 63%.

As for `CNC(=O)c1cc(-c2ccc3cnc(CNC(=O)c4ccc5c(c4)[C@](C)(C#N)COC5)cc3n2)ccc1F` [Compound 467], the Emax amounted to 86%.

For `COc1nn([C@H]2C[C@H](F)C2)cc1-c1ccc2cnc(CNC(=O)c3ccc4c(c3)[C@](C)(C#N)COC4)cc2n1` [Compound 185], the Emax turned out to be 87%.

Take `COc1cc(C2CCC2)ccc1-c1ccc2cnc(CNC(=O)c3ccc4c(c3)[C@](C)(C#N)COC4)cc2n1` [Compound 127]: the Emax was 74%.

`COCCN1CCC(c2cccc(-c3ccc4cnc(CNC(=O)c5ccc6c(c5)[C@](C)(C#N)COC6)cc4n3)n2)CC1` [Compound 128]: the Emax came out at 39%.

`C[C@@]1(C#N)COCc2ncc(C(=O)NCc3cc4nc(-c5cccc(C6CC6)c5)ccc4nn3)cc21` [Compound 198]: the Emax came to 76%.

For the compound `CN1CCN(c2cccc(-c3ccc4cnc(CNC(=O)c5ccc6c(c5)[C@](C)(C#N)COC6)cc4n3)n2)CC1` [Compound 465], the Emax was 89%.

On to `COc1cc(C(C)(C)C)ccc1-c1ccc2cnc(CNC(=O)c3ccc4c(c3)[C@](C)(C#N)COC4)cc2n1` [Compound 148], for which the Emax was determined as 32%.

Regarding `C[C@@]1(F)COCc2ncc(C(=O)NCc3cc4nc(-c5cncc(C6CC6)n5)ccc4cn3)cc21` [Compound 301], the Emax was found to be 86%.

On to `C[C@@]1(C#N)COCc2ccc(C(=O)NCc3cc4nc(-c5cc6ccccn6n5)ccc4cn3)cc21` [Compound 164], for which the Emax is 68%.

Take `COC[C@H](NC(=O)c1ccc2c(c1)[C@](C)(C#N)COC2)c1cc(/C=C/c2ccccc2)ccn1` [Compound 41]: the Emax came out at 55%.

As for `COCCOCCC(=O)N1CCN(c2cccc(-c3ccc4cnc(CNC(=O)c5ccc6c(c5)[C@](C)(C#N)COC6)cc4n3)n2)CC1` [Compound 278], the Emax was determined as 96%.

Regarding `C[C@@H](O)c1cccc(-c2ccc3cnc(CNC(=O)c4cnc5c(c4)[C@](C)(F)COC5)cc3n2)n1` [Compound 212], the Emax amounted to 39%.

For `C[C@@]1(C#N)COCc2ccc(C(=O)NCc3cc4c(cn3)CCN(c3ccccc3)C4)cc21` [Compound 92], the Emax was determined as 64%.

Regarding `C[C@@]1(C#N)COCc2ccc(C(=O)NCc3cc([C@@H]4C[C@H]4c4ccccc4)ccn3)cc21` [Compound 8], the Emax was 9%.

On to `O=C(NCc1cc(C#Cc2ccccc2)ccn1)c1ccc2c(c1)[C@@](F)(C(F)F)COC2` [Compound 47], for which the Emax was 47%.
